Reference: US20250179047A1, “5-[7-(3,4-DIHYDRO-1H-ISOQUINOLINE-2-CARBONYL)-1,2,3,4 TETRAHYDROISOQUINOLIN-6-YL]-1H-PYRROLE-3-CARBOXAMIDE DERIVATIVES, PHARMACEUTICAL COMPOSITIONS CONTAINING THEM AND THEIR USES AS PRO-APOPTOTIC AGENTS” (LES LABORATOIRES SERVIER, priority 2022, published 2025)

How the values were obtained:
BCL2 WT = BCL2 WT (Homo sapiens (Human), UniProt P10415); experiment: TR-FRET competitive binding assay, BCL2 WT; conditions: Ki determined from IC50, read-out: TR_FRET EKI_Bcl2 WT
How it was run: (§1)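 Terbium-labelled N-terminal Halo-fusion BCL2 or BCLXL (E. coli), 0.5 nM, competed against fluorescein-labelled PUMA peptide (2 or 20 nM) for 2 h at 23° C in 50 mM Hepes pH 7.5, 150 mM NaCl, 5% DMSO. TR-FRET 520/495 nm ratio gave IC50 by four-parameter fit; Ki derived from IC50.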

BCL2 G101V [1] = molecular target: BCL2 G101V (Homo sapiens, UniProt P10415, G101V); experiment: TR-FRET competitive binding assay, BCL2 G101V; conditions: BCL2 G101V; Ki determined from IC50; read-out: TR_FRET EKI_Bcl2 G101V
How it was run: as §1

BCL2 G101V [2] = experiment: TR-FRET competitive binding assay, BCL2 G101V; parameters: species or system human; conditions: ratio Ki BCL2 G101V / Ki BCL2 WT
How it was run: as §1

BCL2 D103Y = BCL2 D103Y (Homo sapiens, UniProt P10415, D103Y); experiment: TR-FRET competitive binding assay, BCL2 D103Y; conditions: Ki determined from IC50, read-out: TR_FRET EKI_Bcl2 D103Y
How it was run: as §1

BCLXL WT = BCLXL WT (Homo sapiens (Human), UniProt Q07817); experiment: TR-FRET competitive binding assay, BCLXL WT; conditions: for Ki: BCLXL WT, Ki determined from IC50, read-out: TR_FRET EKI BclxL; for TR_FRET EKI BCLxL/WT selectivty ratio: ratio Ki BCLxL / Ki BCL2 WT
Sequence of BCLXL WT (Q07817 other isoform, or with tags, fused parts or gaps): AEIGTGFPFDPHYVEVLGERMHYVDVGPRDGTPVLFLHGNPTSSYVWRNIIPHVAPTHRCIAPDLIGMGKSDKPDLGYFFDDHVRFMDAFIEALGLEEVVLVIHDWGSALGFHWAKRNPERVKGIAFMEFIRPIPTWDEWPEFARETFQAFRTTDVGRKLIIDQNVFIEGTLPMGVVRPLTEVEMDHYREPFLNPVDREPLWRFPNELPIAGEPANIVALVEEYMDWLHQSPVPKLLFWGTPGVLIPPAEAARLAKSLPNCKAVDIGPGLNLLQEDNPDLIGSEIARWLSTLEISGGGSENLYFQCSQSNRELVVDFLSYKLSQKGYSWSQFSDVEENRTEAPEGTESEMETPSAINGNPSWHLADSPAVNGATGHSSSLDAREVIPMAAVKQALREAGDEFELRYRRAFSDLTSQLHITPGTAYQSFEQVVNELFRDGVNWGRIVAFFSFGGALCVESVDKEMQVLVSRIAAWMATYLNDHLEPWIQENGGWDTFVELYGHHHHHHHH
How it was run: as §1

KMS-12-PE Bcl-2 WT = experiment: In vitro cytotoxicity CellTiter-Glo 48 h, KMS-12-PE Bcl-2 WT; type: cell-based; conditions: Homo sapiens, KMS-12-PE, C50 = concentration needed to reach 50% of the cellular viability
How it was run: (§2)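 Viability measured by CellTiter-Glo luminescence after 48 h compound exposure (11-point curve, 37 °C, 5% CO2). Cells: KMS-12-PE transduced with wild-type or G101V-mutant Bcl-2, FACS-sorted for TagRFP. Reported C50 = concentration reaching 50% cellular viability.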

KMS-12-PE Bcl-2 G101V = experiment: In vitro cytotoxicity CellTiter-Glo 48 h, KMS-12-PE Bcl-2 G101V; type: cell-based; conditions: for Ratio (G101V/WT): C50 KMS-12-PE Bcl-2 G101V over C50 KMS-12-PE Bcl-2 WT; for IC50: Homo sapiens, KMS-12-PE, 48 h, CellTiter-Glo, C50 = concentration needed to reach 50% of the cellular viability
How it was run: as §2

Ki (BCL2 WT) [nM]	Ki (BCL2 G101V [1]) [nM]	TR_FRET EKI G101V/WT selectivty ratio (BCL2 G101V [2])	Ki (BCL2 D103Y) [nM]	Ki (BCLXL WT) [nM]	TR_FRET EKI BCLxL/WT selectivty ratio (BCLXL WT)	SMILES	IC50 (KMS-12-PE Bcl-2 WT) [µM]	Ratio (G101V/WT) (KMS-12-PE Bcl-2 G101V)	IC50 (KMS-12-PE Bcl-2 G101V) [µM]
0.04	0.4	12.2	0.1	3	83.3	COCCn1cc(N(C(=O)c2cc(-c3cc4c(cc3C(=O)N3Cc5ccccc5C[C@H]3C)CN(C(=O)Cc3ccc(OCCN5CCOCC5)cc3)CC4)n(C)c2C)c2ccc(O)cc2)cn1 [Example 143, N-(4-hydroxyphenyl)-N-[1-(2-methoxyethyl)pyrazol-4-yl]-1,2-dimethyl-5-(7-{[(3R)-3-methyl-3,4-dihydro-1H-isoquinolin-2-yl]carbonyl}-2-(2-{4-[2-(morpholin-4-yl)ethoxy]phenyl}acetyl)-3,4-dihydro-1H-isoquinolin-6-yl)pyrrole-3-carboxamide]	0.048	12.604	0.605
0.04	0.2	6.2	0.08	2.6	70.3	Cc1c(N(C(=O)c2cc(-c3cc4c(cc3C(=O)N3Cc5ccccc5C[C@H]3CN3CCCCC3)CN(C(=O)Cc3ccc(OCCN5CCO[C@@H](C)C5)cc3)CC4)n(C)c2C)c2ccc(O)cc2)cc(C#N)n1C [Example 150, N-(5-cyano-1,2-dimethyl-1H-pyrrol-3-yl)-N-(4-hydroxyphenyl)-1,2-dimethyl-5-[2-(2-{4-[2-((2S)-2-methylmorpholin-4-yl)ethoxy]phenyl}acetyl)-7-[(3S)-3-[(piperidin-1-yl)methyl]-1,2,3,4-tetrahydroisoquinoline-2-carbonyl]-1,2,3,4-tetrahydroisoquinolin-6-yl]-1H-pyrrole-3-carboxamide]	0.011	5.2636	0.0579
0.19	1.1	5.5	0.34	2.4	12.6	Cc1c(N(C(=O)c2cc(-c3cc4c(cc3C(=O)N3Cc5ccccc5C[C@H]3C)CN(C(=O)Cc3ccc(OCCN5CCOC6(CC6)C5)cc3)CC4)n(C)c2C)c2ccc(O)cc2)cc(C#N)n1C [Example 93, N-(5-cyano-1,2-dimethyl-1H-pyrrol-3-yl)-N-(4-hydroxyphenyl)-1,2-dimethyl-5-{7-[(3R)-3-methyl-1,2,3,4-tetrahydroisoquinoline-2-carbonyl]-2-{2-[4-(2-{4-oxa-7-azaspiro[2.5]octan-7-yl}ethoxy)phenyl]acetyl}-1,2,3,4-tetrahydroisoquinolin-6-yl}-1H-pyrrole-3-carboxamide]	0.0053	3.45	0.0182
0.04	0.2	5.6	0.14	2.2	56.4	Cc1c(N(C(=O)c2cc(-c3cc4c(cc3C(=O)N3Cc5ccccc5C[C@H]3CN3CCCCC3)CN(C(=O)Cc3ccc(OCCN5CCN(C)CC5)cc3)CC4)n(C)c2C)c2ccc(O)cc2)cc(C#N)n1C [Example 119, N-(5-cyano-1,2-dimethyl-1H-pyrrol-3-yl)-N-(4-hydroxyphenyl)-1,2-dimethyl-5-[2-(2-{4-[2-(4-methylpiperazin-1-yl)ethoxy]phenyl}acetyl)-7-[(3S)-3-[(piperidin-1-yl)methyl]-1,2,3,4-tetrahydroisoquinoline-2-carbonyl]-1,2,3,4-tetrahydroisoquinolin-6-yl]-1H-pyrrole-3-carboxamide]	0.0284	2.57	0.073
0.08	0.5	6.2	0.24	2.2	27.2	Cc1c(N(C(=O)c2cc(-c3cc4c(cc3C(=O)N3Cc5ccccc5C[C@H]3CN(C)C(C)C)CN(C(=O)Cc3ccc(OCCN(C)C5CC5)cc3)CC4)n(C)c2C)c2ccc(O)cc2)cc(C#N)n1C [Example 138, N-(5-cyano-1,2-dimethyl-pyrrol-3-yl)-5-[2-[2-[4-[2-[cyclopropyl(methyl)amino]ethoxy]phenyl]acetyl]-7-[(3S)-3-[[isopropyl(methyl)amino]methyl]-3,4-dihydro-1H-isoquinoline-2-carbonyl]-3,4-dihydro-1H-isoquinolin-6-yl]-N-(4-hydroxyphenyl)-1,2-dimethyl-pyrrole-3-carboxamide]	0.036	5.4167	0.195
0.05	0.3	5.1	0.13	3.7	69.8	Cc1c(N(C(=O)c2cc(-c3cc4c(cc3C(=O)N3Cc5ccccc5C[C@H]3CN3CCCCC3)CN(C(=O)Cc3ccc(OCCN5CCN(CCF)CC5)cc3)CC4)n(C)c2C)c2ccc(O)cc2)cc(C#N)n1C [Example 122, N-(5-cyano-1,2-dimethyl-1H-pyrrol-3-yl)-5-{2-[2-(4-{2-[4-(2-fluoroethyl)piperazin-1-yl]ethoxy}phenyl)acetyl]-7-[(3S)-3-[(piperidin-1-yl)methyl]-1,2,3,4-tetrahydroisoquinoline-2-carbonyl]-1,2,3,4-tetrahydroisoquinolin-6-yl}-N-(4-hydroxyphenyl)-1,2-dimethyl-1H-pyrrole-3-carboxamide]	0.0167	3.96	0.0662
0.13	0.6	4.8	0.3	9.2	70.8	Cc1c(C(=O)N(c2ccc(O)cc2)c2cc(C#N)n(C(F)F)c2C)cc(-c2cc3c(cc2C(=O)N2Cc4ccccc4C[C@H]2CN2CCCCC2)CN(C(=O)Cc2ccc(OCCN4CCOC(C)C4)cc2F)CC3)n1C (single isomer, unassigned) [Example 162, N-[5-cyano-1-(difluoromethyl)-2-methyl-pyrrol-3-yl]-5-[2-[2-[2-fluoro-4-[2-((2R or S)-2-methylmorpholin-4-yl)ethoxy]phenyl]acetyl]-7-[(3S)-3-(1-piperidylmethyl)-3,4-dihydro-1H-isoquinoline-2-carbonyl]-3,4-dihydro-1H-isoquinolin-6-yl]-N-(4-hydroxyphenyl)-1,2-dimethyl-pyrrole-3-carboxamide]	0.0063	5.0958	0.0319
0.04	0.8	21.1	0.13	10	277.8	COc1ccc(N(C(=O)c2cc(-c3cc4c(cc3C(=O)N3Cc5ccccc5C[C@H]3CN3CCCCC3)CN(C(=O)Cc3ccc(OCCN5CCOCC5)cc3F)CC4)n(C)c2C)c2ccc(O)cc2)cn1 [Example 165, 5-[2-(2-{2-fluoro-4-[2-(morpholin-4-yl)ethoxy]phenyl}acetyl)-7-{[(3S)-3-(piperidin-1-ylmethyl)-3,4-dihydro-1H-isoquinolin-2-yl]carbonyl}-3,4-dihydro-1H-isoquinolin-6-yl]-N-(4-hydroxyphenyl)-N-(6-methoxypyridin-3-yl)-1,2-dimethylpyrrole-3-carboxamide]	0.0092	9.0393	0.0828
0.09	0.9	10.9	0.21	9.3	109.4	Cc1c(N(C(=O)c2cc(-c3cc4c(cc3C(=O)N3Cc5ccccc5C[C@H]3CN3CCCCC3)CN(C(=O)Cc3cc(F)c(OCCN5CCOCC5)cc3F)CC4)n(C)c2C)c2ccc(O)cc2)cc(C#N)n1C [Example 83, N-(5-cyano-1,2-dimethylpyrrol-3-yl)-5-[2-(2-{2,5-difluoro-4-[2-(morpholin-4-yl)ethoxy]phenyl}acetyl)-7-{[(3S)-3-(piperidin-1-ylmethyl)-3,4-dihydro-1H-isoquinolin-2-yl]carbonyl}-3,4-dihydro-1H-isoquinolin-6-yl]-N-(4-hydroxyphenyl)-1,2-dimethylpyrrole-3-carboxamide]	0.0125	8.1	0.0958
